# Measured values: PubChem BioAssay (NCI)
#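 How tested: cells in 96-well plates exposed to compound for 48 hours at five concentrations. TGI: concentration producing complete growth inhibition.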
# Legend:
# Experiment in all cases: growth of human tumour cells (NCI), 48 h
# DLD-1 colon = test system: DLD-1 colon
# COLO 205 colon = test system: COLO 205 colon
# IGROV1 ovarian = test system: IGROV1 ovarian
# SR leukemia = test system: SR leukemia
# RXF 393 renal = test system: RXF 393 renal
# CCRF-CEM leukemia = test system: CCRF-CEM leukemia
# KM12 colon = test system: KM12 colon
# M19-MEL melanoma = test system: M19-MEL melanoma
# DMS 273 small cell lung = test system: DMS 273 small cell lung
# TK-10 renal = test system: TK-10 renal
# OVCAR-5 ovarian = test system: OVCAR-5 ovarian
# NCI-H226 lung = test system: NCI-H226 lung
# HCT-15 colon = test system: HCT-15 colon
# MALME-3M melanoma = test system: MALME-3M melanoma
# RXF-631 renal = test system: RXF-631 renal
# HL-60(TB) leukemia = test system: HL-60(TB) leukemia
# 786-0 renal = test system: 786-0 renal
# UACC-62 melanoma = test system: UACC-62 melanoma
# MOLT-4 leukemia = test system: MOLT-4 leukemia
# SK-MEL-28 melanoma = test system: SK-MEL-28 melanoma
# NCI-H522 lung = test system: NCI-H522 lung
# UACC-257 melanoma = test system: UACC-257 melanoma
# HOP-62 NSCLC = test system: HOP-62 NSCLC
# SK-MEL-2 melanoma = test system: SK-MEL-2 melanoma
# NCI-H23 lung = test system: NCI-H23 lung
# LXFL 529 NSCLC = test system: LXFL 529 NSCLC
# K-562 leukemia = test system: K-562 leukemia
# DMS 114 small cell lung = test system: DMS 114 small cell lung
# SK-OV-3 ovarian = test system: SK-OV-3 ovarian
# OVCAR-3 ovarian = test system: OVCAR-3 ovarian
# HCT-116 colon = test system: HCT-116 colon
# LOX IMVI melanoma = test system: LOX IMVI melanoma
# HCC-2998 colon = test system: HCC-2998 colon
# SNB-19 CNS = test system: SNB-19 CNS
# SN12C renal = test system: SN12C renal
# U251 CNS = test system: U251 CNS
# HOP-18 NSCLC = test system: HOP-18 NSCLC
# A549 NSCLC = test system: A549 NSCLC
# OVCAR-4 ovarian = test system: OVCAR-4 ovarian
# OVCAR-8 ovarian = test system: OVCAR-8 ovarian
# SNB-75 CNS = test system: SNB-75 CNS
# CAKI-1 renal = test system: CAKI-1 renal
# HOP-92 NSCLC = test system: HOP-92 NSCLC
# SF-539 CNS = test system: SF-539 CNS
# SF-268 CNS = test system: SF-268 CNS
# RPMI-8226 leukemia = test system: RPMI-8226 leukemia
# SW-620 colon = test system: SW-620 colon
# SK-MEL-5 melanoma = test system: SK-MEL-5 melanoma
# ACHN renal = test system: ACHN renal
# KM20L2 colon = test system: KM20L2 colon
# A498 renal = test system: A498 renal
# M14 melanoma = test system: M14 melanoma
# SF-295 CNS = test system: SF-295 CNS
# NCI-H460 lung = test system: NCI-H460 lung
# HT29 colon = test system: HT29 colon
# XF 498 CNS = test system: XF 498 CNS
# EKVX NSCLC = test system: EKVX NSCLC
# UO-31 renal = test system: UO-31 renal
# SNB-78 CNS = test system: SNB-78 CNS
compound,measurement,setting,value
COc1cc2c(cc1OC)C1[C@@H](c3ccccc3)OCN1CC2 (stereo partly drawn),TGI,DLD-1 colon,> 100 µM
same,TGI,COLO 205 colon,> 100 µM
same,TGI,IGROV1 ovarian,> 100 µM
same,TGI,SR leukemia,> 100 µM
same,TGI,RXF 393 renal,> 100 µM
same,TGI,CCRF-CEM leukemia,> 100 µM
same,TGI,KM12 colon,> 100 µM
same,TGI,M19-MEL melanoma,> 100 µM
same,TGI,DMS 273 small cell lung,> 100 µM
same,TGI,TK-10 renal,> 100 µM
same,TGI,OVCAR-5 ovarian,> 100 µM
same,TGI,NCI-H226 lung,> 100 µM
same,TGI,HCT-15 colon,> 100 µM
same,TGI,MALME-3M melanoma,> 100 µM
same,TGI,RXF-631 renal,> 100 µM
same,TGI,HL-60(TB) leukemia,> 89.8 µM
same,TGI,786-0 renal,> 100 µM
same,TGI,UACC-62 melanoma,> 100 µM
same,TGI,MOLT-4 leukemia,> 100 µM
same,TGI,SK-MEL-28 melanoma,> 100 µM
same,TGI,NCI-H522 lung,> 100 µM
same,TGI,UACC-257 melanoma,> 100 µM
same,TGI,HOP-62 NSCLC,> 100 µM
same,TGI,SK-MEL-2 melanoma,> 100 µM
same,TGI,NCI-H23 lung,> 100 µM
same,TGI,LXFL 529 NSCLC,> 100 µM
same,TGI,K-562 leukemia,> 63.1 µM
same,TGI,DMS 114 small cell lung,> 100 µM
same,TGI,SK-OV-3 ovarian,> 100 µM
same,TGI,OVCAR-3 ovarian,> 100 µM
same,TGI,HCT-116 colon,> 100 µM
same,TGI,LOX IMVI melanoma,> 100 µM
same,TGI,HCC-2998 colon,> 100 µM
same,TGI,SNB-19 CNS,> 100 µM
same,TGI,SN12C renal,> 100 µM
same,TGI,U251 CNS,> 100 µM
same,TGI,HOP-18 NSCLC,> 100 µM
same,TGI,A549 NSCLC,> 100 µM
same,TGI,OVCAR-4 ovarian,> 100 µM
same,TGI,OVCAR-8 ovarian,> 100 µM
same,TGI,SNB-75 CNS,> 100 µM
same,TGI,CAKI-1 renal,> 100 µM
same,TGI,HOP-92 NSCLC,> 100 µM
same,TGI,SF-539 CNS,> 100 µM
same,TGI,SF-268 CNS,> 100 µM
same,TGI,RPMI-8226 leukemia,89.9 µM
same,TGI,SW-620 colon,> 100 µM
same,TGI,SK-MEL-5 melanoma,> 100 µM
same,TGI,ACHN renal,> 100 µM
same,TGI,KM20L2 colon,> 100 µM
same,TGI,A498 renal,> 100 µM
same,TGI,M14 melanoma,> 100 µM
same,TGI,SF-295 CNS,> 100 µM
same,TGI,NCI-H460 lung,> 100 µM
same,TGI,HT29 colon,> 100 µM
same,TGI,XF 498 CNS,> 100 µM
same,TGI,EKVX NSCLC,> 100 µM
same,TGI,UO-31 renal,> 100 µM
same,TGI,SNB-78 CNS,> 100 µM
COc1cc(OC)c2c(c1)C(=O)C(CC1(C)OCCCO1)=CC2=O,TGI,DLD-1 colon,17.4 µM
same,TGI,COLO 205 colon,27.5 µM
same,TGI,IGROV1 ovarian,32.2 µM
same,TGI,SR leukemia,7.2 µM
same,TGI,RXF 393 renal,10.4 µM
same,TGI,CCRF-CEM leukemia,15.4 µM
same,TGI,KM12 colon,28.5 µM
same,TGI,M19-MEL melanoma,13.9 µM
same,TGI,DMS 273 small cell lung,22.5 µM
same,TGI,TK-10 renal,25.1 µM
same,TGI,OVCAR-5 ovarian,30.6 µM
same,TGI,NCI-H226 lung,36.3 µM
same,TGI,HCT-15 colon,16.3 µM
same,TGI,MALME-3M melanoma,20.5 µM
same,TGI,RXF-631 renal,44.5 µM
same,TGI,HL-60(TB) leukemia,7.88 µM
same,TGI,786-0 renal,21.5 µM
same,TGI,UACC-62 melanoma,16.2 µM
same,TGI,MOLT-4 leukemia,30.6 µM
same,TGI,SK-MEL-28 melanoma,23.8 µM
same,TGI,NCI-H522 lung,10.6 µM
same,TGI,UACC-257 melanoma,25.9 µM
same,TGI,HOP-62 NSCLC,33.4 µM
same,TGI,SK-MEL-2 melanoma,30.1 µM
same,TGI,NCI-H23 lung,27 µM
same,TGI,LXFL 529 NSCLC,18.7 µM
same,TGI,K-562 leukemia,> 69.7 µM
same,TGI,DMS 114 small cell lung,15.8 µM
same,TGI,SK-OV-3 ovarian,34.2 µM
same,TGI,OVCAR-3 ovarian,21.4 µM
same,TGI,HCT-116 colon,17.7 µM
same,TGI,LOX IMVI melanoma,12.8 µM
same,TGI,HCC-2998 colon,32.2 µM
same,TGI,SNB-19 CNS,32.4 µM
same,TGI,SN12C renal,27.2 µM
same,TGI,U251 CNS,31.6 µM
same,TGI,HOP-18 NSCLC,25.7 µM
same,TGI,A549 NSCLC,34.4 µM
same,TGI,OVCAR-4 ovarian,19.7 µM
same,TGI,OVCAR-8 ovarian,22.5 µM
same,TGI,SNB-75 CNS,25.3 µM
same,TGI,CAKI-1 renal,18.8 µM
same,TGI,HOP-92 NSCLC,7.73 µM
same,TGI,SF-539 CNS,25.6 µM
same,TGI,SF-268 CNS,26.9 µM
same,TGI,RPMI-8226 leukemia,23.3 µM
same,TGI,SW-620 colon,20.3 µM
same,TGI,SK-MEL-5 melanoma,20.9 µM
same,TGI,ACHN renal,21.6 µM
same,TGI,KM20L2 colon,27.7 µM
same,TGI,A498 renal,32.3 µM
same,TGI,M14 melanoma,26 µM
same,TGI,SF-295 CNS,27.8 µM
same,TGI,NCI-H460 lung,34.7 µM
same,TGI,HT29 colon,28.9 µM
same,TGI,XF 498 CNS,18.4 µM
same,TGI,EKVX NSCLC,28.6 µM
same,TGI,UO-31 renal,24.1 µM
same,TGI,SNB-78 CNS,26.6 µM
